Reference: ChEMBL document CHEMBL1667861, “Kinetic and docking studies of phenol-based inhibitors of carbonic anhydrase isoforms I, II, IX and XII evidence a new binding mode within the enzyme active site” (Bioorg Med Chem, 2011)

What was measured:
Carbonic anhydrase 9 = Carbonic anhydrase 9 (Homo sapiens, UniProt Q16790); assay: Inhibition of human carbonic anhydrase 9 preincubated for 15 mins by CO2 hydration stopped-flow assay
Carbonic anhydrase 2 = Carbonic anhydrase 2 (Homo sapiens, UniProt P00918); assay: Inhibition of human carbonic anhydrase 2 preincubated for 15 mins by CO2 hydration stopped-flow assay
Carbonic anhydrase 1 = Carbonic anhydrase 1 (Homo sapiens, UniProt P00915); assay: Inhibition of human carbonic anhydrase 1 preincubated for 15 mins by CO2 hydration stopped-flow assay
Carbonic anhydrase 12 = Carbonic anhydrase 12 (Homo sapiens, UniProt O43570)
Carbonic anhydrase 12, sequence (O43570 whole entry): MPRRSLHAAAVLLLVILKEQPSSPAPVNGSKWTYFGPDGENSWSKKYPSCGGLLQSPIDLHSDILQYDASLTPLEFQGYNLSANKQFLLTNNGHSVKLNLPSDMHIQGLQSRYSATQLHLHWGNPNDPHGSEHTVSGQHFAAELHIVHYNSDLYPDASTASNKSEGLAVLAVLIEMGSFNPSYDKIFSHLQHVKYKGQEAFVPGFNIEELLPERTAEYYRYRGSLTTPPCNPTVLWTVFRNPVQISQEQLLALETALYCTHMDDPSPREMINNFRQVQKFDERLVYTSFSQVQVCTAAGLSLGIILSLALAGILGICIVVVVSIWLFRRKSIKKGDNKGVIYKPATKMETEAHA

Carbonic anhydrase 1, sequence (P00915 whole entry): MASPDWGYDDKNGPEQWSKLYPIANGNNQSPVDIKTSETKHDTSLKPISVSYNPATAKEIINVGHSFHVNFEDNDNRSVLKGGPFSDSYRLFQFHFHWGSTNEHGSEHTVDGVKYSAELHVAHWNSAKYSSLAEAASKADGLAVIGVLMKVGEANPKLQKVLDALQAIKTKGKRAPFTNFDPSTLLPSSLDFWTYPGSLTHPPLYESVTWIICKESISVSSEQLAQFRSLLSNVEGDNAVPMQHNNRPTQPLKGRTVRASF

Compound	Ki (Carbonic anhydrase 9) [µM]	Ki (Carbonic anhydrase 2) [µM]	Ki (Carbonic anhydrase 1) [nM]	Ki (Carbonic anhydrase 12) [µM]
COc1ccc(OC)c(OC)c1 [1,2,4-TRIMETHOXYBENZENE]	4.06			
COc1ccc(OC)cc1 [1,4-DIMETHOXYBENZENE]		3.35		
O=C(O)c1cc(O)cc(O)c1 [3,5-DIHYDROXYBENZOIC ACID]	4.41		550	3.67
COc1ccc(C(=O)O)cc1OC [VERATRIC ACID]	8.25	6.18	6830	6.7

Continued, values first:

Ki (Carbonic anhydrase 9) [µM]	Ki (Carbonic anhydrase 2) [µM]	Ki (Carbonic anhydrase 1) [nM]	Ki (Carbonic anhydrase 12) [µM]	Compound
4.53	0.6	2370	3.53	O=C(O)c1cccc(O)c1 [3-HYDROXYBENZOIC ACID]
4.45		1080	4.09	O=C(O)c1ccc(O)c(O)c1 [PROTOCATECHUIC ACID]
